# From ChEMBL document CHEMBL2163239, “Inhibitors of human immunodeficiency virus type 1 (HIV-1) attachment 6. Preclinical and human pharmacokinetic profiling of BMS-663749, a phosphonooxymethyl prodrug of the HIV-1 attachment inhibitor 2-(4-benzoyl-1-piperazinyl)-1-(4,7-dimethoxy-1H-pyrrolo[2,3-c]pyridin-3-yl)-2-oxoethanone …” (J Med Chem, 2012)
# Assays:
# [1] = Aqueous solubility of compound at pH 8.9; assay type: physicochemical
# [2] = Aqueous solubility of compound at pH 5.4; assay type: physicochemical
# [3] = Aqueous solubility of compound at pH 1.4 after 18 to 24 hrs by RP-HPLC analysis; assay type: physicochemical
# [4] = Lipophilicity, log D of compound in octanol-PBS mixture at pH 6.5 by HPLC-UV analysis; assay type: physicochemical
# [5] = Clearance in Sprague-Dawley rat at 1.4 mg/kg, iv; assay type: ADME, organism-based; design: dose 1.4 mg/kg, route intravenous; conditions: in vivo
# [6] = Volume of distribution at steady state in Sprague-Dawley rat at 1.4 mg/kg, iv; assay type: ADME, organism-based; design: dose 1.4 mg/kg, route intravenous; conditions: in vivo, read-out: Vdss
# [7] = Half life in Sprague-Dawley rat at 1.4 mg/kg, iv; assay type: ADME, organism-based; design: dose 1.4 mg/kg, route intravenous; conditions: in vivo
# [8] = Mean residence time in Sprague-Dawley rat at 1.4 mg/kg, iv; assay type: ADME, organism-based; design: dose 1.4 mg/kg, route intravenous; conditions: in vivo
# Rattus norvegicus [9] = assay: Absolute oral bioavailability in Sprague-Dawley rat assessed as BMS-488043 level at 7.9 mg/kg; assay type: ADME, organism-based; conditions: in vivo
# Rattus norvegicus [10] = assay: Cmax in Sprague-Dawley rat assessed as BMS-488043 level at 7.9 mg/kg, po; assay type: ADME, organism-based; design: dose 7.9 mg/kg, route oral; conditions: in vivo
# Rattus norvegicus [11] = assay: Tmax in Sprague-Dawley rat assessed as BMS-488043 level at 7.9 mg/kg, po; assay type: ADME, organism-based; design: dose 7.9 mg/kg, route oral; conditions: in vivo
# Rattus norvegicus [12] = assay: AUC (total) in Sprague-Dawley rat assessed as BMS-488043 level at 7.9 mg/kg, po; assay type: ADME, organism-based, Plasma; design: dose 7.9 mg/kg, route oral; conditions: in vivo
# Rattus norvegicus [13] = assay: Half life in Sprague-Dawley rat assessed as BMS-488043 level at 7.9 mg/kg, po; assay type: ADME, organism-based; design: dose 7.9 mg/kg, route oral; conditions: in vivo
# [14] = Clearance in beagle dog at 1.2 mg/kg, iv; assay type: ADME, organism-based, Canis lupus familiaris; design: dose 1.2 mg/kg, route intravenous; conditions: in vivo
# [15] = Volume of distribution at steady state in beagle dog at 1.2 mg/kg, iv; assay type: ADME, organism-based, Canis lupus familiaris; design: dose 1.2 mg/kg, route intravenous; conditions: in vivo, read-out: Vdss
# [16] = Half life in beagle dog at 1.2 mg/kg, iv; assay type: ADME, organism-based, Canis lupus familiaris; design: dose 1.2 mg/kg, route intravenous; conditions: in vivo
# [17] = Mean residence time in beagle dog at 1.2 mg/kg, iv; assay type: ADME, organism-based, Canis lupus familiaris; design: dose 1.2 mg/kg, route intravenous; conditions: in vivo
# Canis familiaris [18] = assay: Absolute oral bioavailability in beagle dog assessed as BMS-488043 level at 6.6 mg/kg; assay type: ADME, organism-based, Canis lupus familiaris; conditions: in vivo
# Canis familiaris [19] = assay: Cmax in beagle dog assessed as BMS-488043 level at 6.6 mg/kg, po; assay type: ADME, organism-based, Canis lupus familiaris; design: dose 6.6 mg/kg, route oral; conditions: in vivo
# Canis familiaris [20] = assay: Tmax in beagle dog assessed as BMS-488043 level at 6.6 mg/kg, po; assay type: ADME, organism-based, Canis lupus familiaris; design: dose 6.6 mg/kg, route oral; conditions: in vivo
# Canis familiaris [21] = assay: AUC (total) in beagle dog assessed as BMS-488043 level at 6.6 mg/kg, po; assay type: ADME, organism-based, Canis lupus familiaris, Plasma; design: dose 6.6 mg/kg, route oral; conditions: in vivo
# Canis familiaris [22] = assay: Half life in beagle dog assessed as BMS-488043 level at 6.6 mg/kg, po; assay type: ADME, organism-based, Canis lupus familiaris; design: dose 6.6 mg/kg, route oral; conditions: in vivo
# [23] = Clearance in cynomolgus monkey at 1.3 mg/kg, iv; assay type: ADME, organism-based, Macaca fascicularis; design: dose 1.3 mg/kg, route intravenous; conditions: in vivo
# [24] = Volume of distribution at steady state in cynomolgus monkey at 1.3 mg/kg, iv; assay type: ADME, organism-based, Macaca fascicularis; design: dose 1.3 mg/kg, route intravenous; conditions: in vivo, read-out: Vdss
# [25] = Half life in cynomolgus monkey at 1.3 mg/kg, iv; assay type: ADME, organism-based, Macaca fascicularis; design: dose 1.3 mg/kg, route intravenous; conditions: in vivo
# [26] = Mean residence time in cynomolgus monkey at 1.3 mg/kg, iv; assay type: ADME, organism-based, Macaca fascicularis; design: dose 1.3 mg/kg, route intravenous; conditions: in vivo
# Cynomolgus monkey [27] = assay: Absolute oral bioavailability in cynomolgus monkey assessed as BMS-488043 level at 7.1 mg/kg; assay type: ADME, organism-based, Macaca fascicularis; conditions: in vivo
# Cynomolgus monkey [28] = assay: Cmax in cynomolgus monkey assessed as BMS-488043 level at 7.1 mg/kg, po; assay type: ADME, organism-based, Macaca fascicularis; design: dose 7.1 mg/kg, route oral; conditions: in vivo
# Cynomolgus monkey [29] = assay: Tmax in cynomolgus monkey assessed as BMS-488043 level at 7.1 mg/kg, po; assay type: ADME, organism-based, Macaca fascicularis; design: dose 7.1 mg/kg, route oral; conditions: in vivo
# Cynomolgus monkey [30] = assay: AUC (total) in cynomolgus monkey assessed as BMS-488043 level at 7.1 mg/kg, po; assay type: ADME, organism-based, Macaca fascicularis, Plasma; design: dose 7.1 mg/kg, route oral; conditions: in vivo
# Cynomolgus monkey [31] = assay: Half life in cynomolgus monkey assessed as BMS-488043 level at 7.1 mg/kg, po; assay type: ADME, organism-based, Macaca fascicularis; design: dose 7.1 mg/kg, route oral; conditions: in vivo
# [32] = Cmax in healthy human at 25 mg, po administered with high fat meal; assay type: ADME, organism-based; design: dose 25 mg, route oral; conditions: in vivo
# [33] = Cmax in healthy human at 50 mg, po administered with high fat meal; assay type: ADME, organism-based; design: dose 50 mg, route oral; conditions: in vivo
# [34] = Cmax in healthy human at 100 mg, po administered with high fat meal; assay type: ADME, organism-based; design: dose 100 mg, route oral; conditions: in vivo
# [35] = Cmax in healthy human at 200 mg, po administered with high fat meal; assay type: ADME, organism-based; design: dose 200 mg, route oral; conditions: in vivo
# [36] = Cmax in healthy human at 400 mg, po administered with high fat meal; assay type: ADME, organism-based; design: dose 400 mg, route oral; conditions: in vivo
# [37] = Cmax in healthy human at 800 mg, po administered with high fat meal; assay type: ADME, organism-based; design: dose 800 mg, route oral; conditions: in vivo
# [38] = Tmax in healthy human at 25 mg, po administered with high fat meal; assay type: ADME, organism-based; conditions: in vivo
# [39] = Tmax in healthy human at 50 mg, po administered with high fat meal; assay type: ADME, organism-based; conditions: in vivo
# [40] = Tmax in healthy human at 100 mg, po administered with high fat meal; assay type: ADME, organism-based; conditions: in vivo
# [41] = Tmax in healthy human at 200 mg, po administered with high fat meal; assay type: ADME, organism-based; conditions: in vivo
# [42] = Tmax in healthy human at 400 mg, po administered with high fat meal; assay type: ADME, organism-based; conditions: in vivo
# [43] = Tmax in healthy human at 800 mg, po administered with high fat meal; assay type: ADME, organism-based; conditions: in vivo
# [44] = Half life in healthy human at 25 mg, po administered with high fat meal; assay type: ADME, organism-based; conditions: in vivo
# [45] = Half life in healthy human at 50 mg, po administered with high fat meal; assay type: ADME, organism-based; conditions: in vivo
# [46] = Half life in healthy human at 100 mg, po administered with high fat meal; assay type: ADME, organism-based; conditions: in vivo
# [47] = Half life in healthy human at 200 mg, po administered with high fat meal; assay type: ADME, organism-based; conditions: in vivo
# [48] = Half life in healthy human at 400 mg, po administered with high fat meal; assay type: ADME, organism-based; conditions: in vivo
# [49] = Half life in healthy human at 800 mg, po administered with high fat meal; assay type: ADME, organism-based; conditions: in vivo
# [50] = AUC (infinity) in healthy human at 25 mg, po administered with high fat meal; assay type: ADME, organism-based; design: dose 25 mg, time infinity, route oral; conditions: plasma
# [51] = AUC (infinity) in healthy human at 50 mg, po administered with high fat meal; assay type: ADME, organism-based; design: dose 50 mg, time infinity, route oral; conditions: plasma
# [52] = AUC (infinity) in healthy human at 100 mg, po administered with high fat meal; assay type: ADME, organism-based; design: dose 100 mg, route oral, time infinity; conditions: plasma
# [53] = AUC (infinity) in healthy human at 200 mg, po administered with high fat meal; assay type: ADME, organism-based; design: dose 200 mg, route oral, time infinity; conditions: plasma
# [54] = AUC (infinity) in healthy human at 400 mg, po administered with high fat meal; assay type: ADME, organism-based; design: dose 400 mg, time infinity, route oral; conditions: plasma
# [55] = AUC (infinity) in healthy human at 800 mg, po administered with high fat meal; assay type: ADME, organism-based; design: dose 800 mg, time infinity, route oral; conditions: plasma
# Plasma [56] = assay: Plasma concentration in healthy human at 25 mg, po administered with high fat meal measured after 12 hrs; assay type: ADME, organism-based; conditions: in vivo, BLD = below limit of detection
# Plasma [57] = assay: Plasma concentration in healthy human at 50 mg, po administered with high fat meal measured after 12 hrs; assay type: ADME, organism-based; conditions: in vivo, BLD = below limit of detection
# [58] = Plasma concentration in healthy human at 100 mg, po administered with high fat meal measured after 12 hrs; assay type: ADME, organism-based
# [59] = Plasma concentration in healthy human at 200 mg, po administered with high fat meal measured after 12 hrs; assay type: ADME, organism-based
# [60] = Plasma concentration in healthy human at 400 mg, po administered with high fat meal measured after 12 hrs; assay type: ADME, organism-based
# [61] = Plasma concentration in healthy human at 800 mg, po administered with high fat meal measured after 12 hrs; assay type: ADME, organism-based
# [62] = Dissociation constant, pKa of compound; assay type: physicochemical
compound,measurement,setting,value
COc1cnc(OC)c2c1c(C(=O)C(=O)N1CCN(C(=O)c3ccccc3)CC1)cn2COP(=O)(O)O.NCCCC[C@H](N)C(=O)O,solubility,[1],> 12000 µg/mL
same,solubility,[2],> 12000 µg/mL
same,solubility,[3],220 µg/mL
same,logD,[4],< -1
same,clearance,[5],14 mL/min/kg
same,Vd,[6],0.12 L/kg
same,half-life,[7],9.6 min
same,MRT,[8],8.4 min
same,F,Rattus norvegicus [9],62%
same,Cmax,Rattus norvegicus [10],3.94 µM
same,Tmax,Rattus norvegicus [11],49.8 min
same,AUC,Rattus norvegicus [12],13.168 µM·h
same,t1/2,Rattus norvegicus [13],90 min
same,clearance,[14],70 mL/min/kg
same,Vd,[15],0.3 L/kg
same,half-life,[16],9 min
same,MRT,[17],4.2 min
same,F,Canis familiaris [18],93%
same,Cmax,Canis familiaris [19],14 µM
same,Tmax,Canis familiaris [20],15 min
same,AUC,Canis familiaris [21],82.844 µM·h
same,t1/2,Canis familiaris [22],246 min
same,clearance,[23],4.4 mL/min/kg
same,Vd,[24],0.048 L/kg
same,half-life,[25],60 min
same,MRT,[26],10.8 min
same,F,Cynomolgus monkey [27],67%
same,Cmax,Cynomolgus monkey [28],16.4 µM
same,Tmax,Cynomolgus monkey [29],49.8 min
same,AUC,Cynomolgus monkey [30],34.183 µM·h
same,t1/2,Cynomolgus monkey [31],288 min
same,Cmax,[32],784 ng/mL
same,Cmax,[33],1370 ng/mL
same,Cmax,[34],3650 ng/mL
same,Cmax,[35],8420 ng/mL
same,Cmax,[36],12900 ng/mL
same,Cmax,[37],26800 ng/mL
same,Tmax,[38],30 min
same,Tmax,[39],30 min
same,Tmax,[40],30 min
same,Tmax,[41],30 min
same,Tmax,[42],37.8 min
same,Tmax,[43],60 min
same,half-life,[44],60 min
same,half-life,[45],84 min
same,half-life,[46],114 min
same,half-life,[47],402 min
same,half-life,[48],780 min
same,half-life,[49],660 min
same,AUC(0-inf),[50],1160 ng·h/mL
same,AUC(0-inf),[51],2150 ng·h/mL
same,AUC(0-inf),[52],5730 ng·h/mL
same,AUC(0-inf),[53],14200 ng·h/mL
same,AUC(0-inf),[54],26200 ng·h/mL
same,AUC(0-inf),[55],64100 ng·h/mL
same,Cp,Plasma [56],BLD
same,Cp,Plasma [57],BLD
same,concentration at 12 h,[58],12 ng/mL
same,concentration at 12 h,[59],33 ng/mL
same,concentration at 12 h,[60],59 ng/mL
same,concentration at 12 h,[61],150 ng/mL
same,pKa,[62],2.2
